The source of these data is paper PMC7117802 (ChemMedChem, 2020).

Usually half-life stands for the time in which the quantity being followed falls by half. Read a low half-life as fast loss.

SMILES strings stand for the structures.

One data set in a line: in vitro. The conditions noted are these: mouse, microsomes.
The nature of data set [1]: Reactivity of model compound 3 with nucleophiles. The class given is physicochemical.
Data set [2] can be described thus: Chemical stability in 15% aqueous NaOH. The class given is physicochemical. The conditions noted are these: 30 min, data not shown.
The format of data set [3] is in vitro ADME, mouse. The conditions noted are these: 1 μM, 37 °C.
Data set [4] in a line: Metabolic stability in mouse liver microsomes with or without NADPH.
The nature of data set [5]: Stability of DT3-F2 in microsomes over 60 min, normal phase LC-fluorescence. Format: in vitro ADME, mouse. The conditions noted are these: 37 °C, no NADPH, fluorescence detection.
The conditions of data set [6]: ref [2]; cited from earlier work.
The conditions of data set [7]: mouse, 1 μM, pH 7.4.
Where [8] appears, read: pH 7.4, % remaining at 30 min with NADPH.
Where [9] appears, read: pH 7.4, % remaining at 30 min without NADPH.

In the data set “in vitro” (pH 7.4), `CC(C)NCC(O)COc1cccc2ccccc12` (stereo not drawn) [Propranolol] displayed a half-life at 1 μM of 0.417 ± 0.16 h. The fraction remaining at 0.5 h, 1 μM came out at 14.5 ± 10.4% in “in vitro” (setting [8]) and 107 ± 8.9% in “in vitro” (setting [9]).

On to `C/C(=C\CS(=O)(=O)c1ccccc1)CCC=C(CF)CF` [compound 3, (E)-((8-Fluoro-7-(fluoromethyl)-3-methylocta-2,6-dien-1-yl)sulfonyl) benzene], for which the “Reaction with morpholine in HBD solvents” value in data set [1] (hydrogen-bond donor solvents, 70 °C, Figure S3) is listed as “able to react”. Also, the “Reaction with N-acetyl cysteine (NAC)” value in data set [1] (nucleophilic sulfide NAC, Figure S2) is listed as “No reaction”.

For the molecule `C/C(=C\CC/C(C)=C/CC[C@]1(C)CCc2cc(O)cc(C)c2O1)CCC=C(CF)CF` [DT3-F2 (1), (R)-2-((3E,7E)-13-Fluoro-12-(fluoromethyl)-4,8-dimethyltrideca-3,7,11-trien-1-yl)-2,8-dimethylchroman-6-ol], in data set [2], the “Stability when stirred in 15% aqueous NaOH” value is listed as “remained intact”. In addition, the “Decrease of compound after incubation with active mouse liver microsomes” value in data set [3] (10 min, microsomes + buffer, no NADPH) was ~ 50%. Further, the “Degradation with mouse liver microsomes + NADPH, compared with microsomes alone” value in data set [3] (up to 10 min, NADPH present) is “More degradation”. Moreover, the “Stability in buffer (PBS) alone” value in data set [3] (up to 10 min, PBS) was “stable”. In addition, the “Degradation in mouse liver microsomes in the presence of NADPH (in words)” value in data set [4] (with NADPH, 30 min) is on record as “exhausted (below detection limit)”. In addition, the “Degradation in mouse liver microsomes in the absence of NADPH (in words)” value in data set [4] (without NADPH, 30 min) is on record as “exhausted (below detection limit)”. Moreover, the “Parent peak after incubation in mouse liver microsomes” value in data set [5] was “no longer detectable”.

As for `CC(C)=CCC/C(C)=C/CC/C(C)=C/CC[C@]1(C)CCc2cc(O)cc(C)c2O1` [δ-Tocotrienol], the fraction remaining at 0.5 h, 1 μM in “in vitro” (setting [8]) is 63.7 ± 6.7%; in “in vitro” (setting [9]) it was 100 ± 6.6%. In addition, the Plasma elimination half-life entry in data set [6] is reported as “short”. This molecule also had a half-life at 1 μM in data set [4] (mouse, microsomes, pH 7.4) of 1.8 ± 0.287 h. Besides, in data set [7], the “Clin,u” value is 5240 ± 819.7 µL/min/mg.

Consider `CC(C)=CCC/C(C)=C/CC/C(C)=C/CC[C@]1(C)CCc2cc(O)c(C)c(C)c2O1` [γ-tocotrienol], for which the Plasma elimination half-life result in data set [6] is given as “short”.
